Values joined by “and” are separate entries in the source; they are usually repeats but may differ in a detail not shown here. Equal values may be shown once.
How the values were obtained:
Type in all cases: functional, Homo sapiens
Design in all cases: dose or concentration left out as unconfirmed
Colon cancer organoid [1] = assay: (§1) Image-based profiling of donated chemical probes and chemogenomic kinase set in O06 CRC organoid. Image analysis is performed on the sum area metric, and the data were normalized to the DMSO control. After imaging the organoid viability is measured using the OneGloEX Luciferase Assay System. The normalized viability data and sum area are reported.
Colon cancer organoid [2] = assay: as §1, with “O21” for “O06”
Colon cancer organoid [3] = assay: as §1, with “O09” for “O06”

COc1ccccc1S(=O)(=O)Nc1ccc2c(c1)CN(C)C(=O)N2
Cell Viability (Colon cancer organoid [1]; Replication number 1): 152.206% and 125.879% | Cell Viability (Colon cancer organoid [1]; Replication number 2): 155.447% and 126.899% | Cell Viability (Colon cancer organoid [2]; Replication number 1): 64.6421% and 66.4272% | Cell Viability (Colon cancer organoid [2]; Replication number 2): 105.73% and 125.656% | Cell Viability (Colon cancer organoid [3]; Replication number 1): 91.3379% and 107.573% | Cell Viability (Colon cancer organoid [3]; Replication number 2): 93.4533% and 109.471%

COc1cc2c(cc1NS(=O)(=O)c1ccc(Br)cc1C)n(C)c(=O)n2C
Cell Viability (Colon cancer organoid [1]; Replication number 1): 85.4589% and 143.275% | Cell Viability (Colon cancer organoid [1]; Replication number 2): 107.386% and 104.912% | Cell Viability (Colon cancer organoid [2]; Replication number 1): 90.5613% and 147.551% | Cell Viability (Colon cancer organoid [2]; Replication number 2): 87.5695% and 113.305% | Cell Viability (Colon cancer organoid [3]; Replication number 1): 82.8669% and 66.0742% | Cell Viability (Colon cancer organoid [3]; Replication number 2): 161.71% and 111.182%

Clc1cccc(-c2nnnn2Cc2cccnc2)c1Cl
Cell Viability (Colon cancer organoid [1]; Replication number 1): 110.934% and 130.913% | Cell Viability (Colon cancer organoid [1]; Replication number 2): 90.04% and 81.9662% | Cell Viability (Colon cancer organoid [2]; Replication number 1): 103.002% and 95.4722% | Cell Viability (Colon cancer organoid [2]; Replication number 2): 106.874% and 109.184% | Cell Viability (Colon cancer organoid [3]; Replication number 1): 192.597% and 128.776% | Cell Viability (Colon cancer organoid [3]; Replication number 2): 120.929% and 99.0142%

O=C1CCc2cc(Nc3cc(OC4CCOCC4)c([N+](=O)[O-])cc3Cl)ccc2N1
Cell Viability (Colon cancer organoid [1]; Replication number 1): 92.8758% and 110.539% | Cell Viability (Colon cancer organoid [1]; Replication number 2): 96.13% and 100.681% | Cell Viability (Colon cancer organoid [2]; Replication number 1): 105.584% and 104.204% | Cell Viability (Colon cancer organoid [2]; Replication number 2): 94.4034% and 103.061% | Cell Viability (Colon cancer organoid [3]; Replication number 1): 197.242% and 145.978% | Cell Viability (Colon cancer organoid [3]; Replication number 2): 128.806% and 115.663%

CCNC(=O)c1cc2c(N3CCOC[C@@H]3C)ccnc2n1C
Cell Viability (Colon cancer organoid [1]; Replication number 1): 97.9107% and 98.1265% | Cell Viability (Colon cancer organoid [1]; Replication number 2): 90.7853% and 98.7859% | Cell Viability (Colon cancer organoid [2]; Replication number 1): 124.621% and 105.951% | Cell Viability (Colon cancer organoid [2]; Replication number 2): 105.072% and 92.3469% | Cell Viability (Colon cancer organoid [3]; Replication number 1): 131.24% and 98.4338% | Cell Viability (Colon cancer organoid [3]; Replication number 2): 151.747% and 108.945%

CCc1cc(Nc2nccc(-c3c(-c4ccc(OC)c(C(=O)Nc5c(F)cccc5F)c4)nc4ccccn34)n2)c(OC)cc1N1CCC(N2CCN(S(C)(=O)=O)CC2)CC1
Cell Viability (Colon cancer organoid [1]; Replication number 1): 105.005% and 109.946% | Cell Viability (Colon cancer organoid [1]; Replication number 2): 148.394% and 109.614% | Cell Viability (Colon cancer organoid [2]; Replication number 1): 80.3348% and 98.676% | Cell Viability (Colon cancer organoid [2]; Replication number 2): 124.058% and 123.21% | Cell Viability (Colon cancer organoid [3]; Replication number 1): 134.446% and 100.483% | Cell Viability (Colon cancer organoid [3]; Replication number 2): 134.446% and 126.607%

Cc1c(C(=O)O)cc(-c2ccc(C3CCNCC3)cc2)c2ccc(-c3ccc(C(F)(F)F)cc3)cc12.Cl
Cell Viability (Colon cancer organoid [1]; Replication number 1): 120.986% and 114.413% | Cell Viability (Colon cancer organoid [1]; Replication number 2): 106.141% and 127.102% | Cell Viability (Colon cancer organoid [2]; Replication number 1): 85.8075% and 94.398% | Cell Viability (Colon cancer organoid [2]; Replication number 2): 96.6667% and 83.1067% | Cell Viability (Colon cancer organoid [3]; Replication number 1): 120.061% and 98.4744% | Cell Viability (Colon cancer organoid [3]; Replication number 2): 101.967% and 96.9469%

C[C@@H](c1cccc(C#N)c1)n1cc(Cl)cc(C(N)=O)c1=N.Cl
Cell Viability (Colon cancer organoid [1]; Replication number 1): 94.9066% and 108.826% | Cell Viability (Colon cancer organoid [1]; Replication number 2): 100.434% and 114.368% | Cell Viability (Colon cancer organoid [2]; Replication number 1): 94.9994% and 100.946% | Cell Viability (Colon cancer organoid [2]; Replication number 2): 88.3604% and 82.5969% | Cell Viability (Colon cancer organoid [3]; Replication number 1): 93.1286% and 91.7219% | Cell Viability (Colon cancer organoid [3]; Replication number 2): 106.099% and 101.903%

O=C(Nc1cccnn1)N1CC(C/C=C/c2cncc(Oc3ccc(C(F)(F)F)cn3)n2)C1
Cell Viability (Colon cancer organoid [1]; Replication number 1): 109.538% and 100.234% | Cell Viability (Colon cancer organoid [1]; Replication number 2): 99.7432% and 110.394% | Cell Viability (Colon cancer organoid [2]; Replication number 1): 91.4572% and 89.6507% | Cell Viability (Colon cancer organoid [2]; Replication number 2): 96.356% and 80.102% | Cell Viability (Colon cancer organoid [3]; Replication number 1): 144.17% and 108.229% | Cell Viability (Colon cancer organoid [3]; Replication number 2): 154.84% and 92.5885%

Cc1cnc(Nc2ccc(F)cc2Cl)nc1-c1c[nH]c(C(=O)N[C@H](CO)c2cccc(Cl)c2)c1
Cell Viability (Colon cancer organoid [1]; Replication number 1): 3.326% and 7.634% | Cell Viability (Colon cancer organoid [2]; Replication number 1): 28.1046% and 23.9721% | Cell Viability (Colon cancer organoid [2]; Replication number 2): 23.785% and 21.0148% | Cell Viability (Colon cancer organoid [3]; Replication number 1): 6.582% and 13.6138%

CNC(=O)Nc1ccc(-c2nc(N3CC4CCC(C3)O4)c3cnn(C4CCC5(CC4)OCCO5)c3n2)cc1
Cell Viability (Colon cancer organoid [1]; Replication number 1): 5.405% and 12.6193% | Cell Viability (Colon cancer organoid [1]; Replication number 2): 4.979% and 10.7558% | Cell Viability (Colon cancer organoid [2]; Replication number 1): 32.2778% and 51.8467% | Cell Viability (Colon cancer organoid [2]; Replication number 2): 33.537% and 47.4991% | Cell Viability (Colon cancer organoid [3]; Replication number 1): 16.963% and 8.004% | Cell Viability (Colon cancer organoid [3]; Replication number 2): 13.8845% and 13.3086%
